Laboratory results from article PMC5011342, “A high throughput drug screening assay to identify compounds that promote oligodendrocyte differentiation using acutely dissociated and purified oligodendrocyte precursor cells” (BMC Research Notes, 2016).
Structures can show the parent of a compound that is named as a salt. Where two headings read alike, the source gives them in different places.

Tests used:
[1] = tested on: acutely dissociated and purified rat OPCs; test: Acute OL differentiation assay (MBP expression/cell, immunofluorescent image quantification); assay type: cell-based; conditions: sheet "All OLga data", relative to quetiapine
Procedure, shortened: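 Oligodendrocyte precursor cells were enriched from P6-P7 Sprague–Dawley rat brains by immunopanning (RAN-2 and GalC depletion, O4 selection), plated at 5000 cells/well in serum-free, mitogen-free differentiation media on PDL/laminin 96-well view plates, centrifuged at 200×g, and pre-incubated 1–2 h before test compounds were added in quadruplicate. On DIV4, cells were fixed, stained for MBP and DAPI, imaged automatically, and MBP expression per cell was quantified.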

expanded OPCs = test: cells; conditions: for viability at 0.1 µM / viability at 1 µM / viability at 10 µM: Rattus norvegicus, 72 h
Procedure, shortened: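 Expanded OPCs seeded at 10,000 cells/well in differentiation media, then exposed to NCC library compounds at 10, 1 and 0.1 µM (quadruplicate, 0.1% DMSO) for three days. Viability read as alamarBlue fluorescence (560/590 nm) after 4 h at 37 °C; tunicamycin 5 ng/ml served as toxicity control.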

[2] = Rattus norvegicus, test compound at 2 uM, NCC library screen, read-out: 2 uM (% Quet)
[3] = Rattus norvegicus, test compound at 10 uM, NCC library screen, read-out: 10 uM (% Quet)
[4] = read-out: 0.1 µM (% DMSO), alamarBlue viability, NCC library compound at 0.1 µM, sheet "All Tox data"
[5] = read-out: 1 µM (% DMSO), alamarBlue viability, NCC library compound at 1 µM, sheet "All Tox data"
[6] = read-out: 10 µM (% DMSO), alamarBlue viability, NCC library compound at 10 µM, sheet "All Tox data"
[7] = Rattus norvegicus, 0.4 uM test compound, read-out: OL differentiation, 0.4 uM (% Quet)
[8] = Rattus norvegicus, 2 uM test compound, read-out: OL differentiation, 2 uM (% Quet)
[9] = alamarBlue viability of expanded OPCs, compound at 0.1 µM, relative to DMSO control
[10] = alamarBlue viability of expanded OPCs, compound at 1 µM, relative to DMSO control
[11] = alamarBlue viability of expanded OPCs, compound at 10 µM, relative to DMSO control
[12] = read-out: 0.1 µM (% DMSO), alamarBlue viability of expanded OPCs, compound at 0.1 µM, sheet All Tox data
[13] = read-out: 1 µM (% DMSO), alamarBlue viability of expanded OPCs, compound at 1 µM, sheet All Tox data
[14] = read-out: 10 µM (% DMSO), alamarBlue viability of expanded OPCs, compound at 10 µM, sheet All Tox data
[15] = Rattus norvegicus, 10 uM test compound, read-out: OL differentiation, 10 uM (% Quet)

| SMILES | activation at 2 µM [1, 2] [%] | activation at 10 µM [1, 3] [%] | viability at 0.1 µM (expanded OPCs; [4]) [%] | viability at 1 µM (expanded OPCs; [5]) [%] | viability at 10 µM (expanded OPCs; [6]) [%] | activation at 2 µM [1, 8] [%] | viability at 0.1 µM (expanded OPCs; [12]) [%] | viability at 1 µM (expanded OPCs; [13]) [%] | viability at 10 µM (expanded OPCs; [14]) [%] | activation at 10 µM [1, 15] [%] | further results |
| --- | --- | --- | --- | --- | --- | --- | --- | --- | --- | --- | --- |
| C[C@]12CC[C@@H]3c4ccc(OS(=O)(=O)O)cc4CC[C@H]3[C@@H]1CCC2=O [Estrone sulfate] |  |  |  |  |  |  |  |  |  |  | 2 uM (% Quet) ([1]; test compound at 2 uM, NCC library screen): 12.5 % Quet; 10 uM (% Quet) ([1]; test compound at 10 uM, NCC library screen): 10.2 % Quet; 0.1 µM (% DMSO) (expanded OPCs; alamarBlue viability, NCC library compound at 0.1 µM, sheet "All Tox data"): 94.4 % DMSO; 1 µM (% DMSO) (expanded OPCs; alamarBlue viability, NCC library compound at 1 µM, sheet "All Tox data"): 83.6 % DMSO; 10 µM (% DMSO) (expanded OPCs; alamarBlue viability, NCC library compound at 10 µM, sheet "All Tox data"): 92.4 % DMSO |
| O=C1N(c2ccccc2)c2ccccc2C1(Cc1ccncc1)Cc1ccncc1 [Linopirdine] | -7.9 | -12.7 | 90.7 | 94.5 | 86.2 |  |  |  |  |  |  |
| COc1cc(C(=O)NS(=O)(=O)c2ccccc2C)ccc1Cc1cn(C)c2ccc(NC(=O)OC3CCCC3)cc12 [Zafirlukast] |  |  | 94.9 | 78.7 | 41.9 | -96.7 |  |  |  |  | activation at 0.4 µM [1, 7]: -24.7% |
| O=C(O)c1cccnc1 [Niacin] | -3.6 | 3.6 |  |  |  |  |  |  |  |  | 0.1 µM (% DMSO) (expanded OPCs; [9]): 92.4 % DMSO; 1 µM (% DMSO) (expanded OPCs; [10]): 94.0 % DMSO; 10 µM (% DMSO) (expanded OPCs; [11]): 85.5 % DMSO |
| Cc1c(O)cccc1C(=O)N[C@@H](CSc1ccccc1)[C@H](O)CN1C[C@H]2CCCC[C@H]2C[C@H]1C(=O)NC(C)(C)C [Nelfinavir] |  |  |  |  |  | -84.5 | 100 | 59 | 11.3 |  | activation at 0.4 µM [1, 7]: -21.8% |
| COc1cc(C(=O)NC2CCCNC2)cc(OC)c1OC (centres unmarked) [Troxipide] |  |  |  |  |  | 18 | 102 | 115 | 109 | -6.8 |  |
| CC(=O)CCCCn1c(=O)c2c(ncn2C)n(C)c1=O [Pentoxifylline] | 16.8 | 7.2 | 92.8 | 93.6 | 94.9 | 12.2 | 107 | 101 | 98 | -23.3 |  |
| CCCCN1CCCCC1C(=O)Nc1c(C)cccc1C (centres unmarked) [Bupivacaine] | -1 | 7 | 79.1 | 83.4 | 70.5 |  |  |  |  |  |  |
| Clc1cccc(Cl)c1N=C1NCCN1 [Clonidine hydrochloride] |  |  | 91.9 | 84.3 | 77.2 | -12.5 |  |  |  | -14.3 |  |
| NC(=O)c1cnccn1 [Pyrazinamide] | -8.1 | -1.1 |  |  |  |  |  |  |  |  | 0.1 µM (% DMSO) (expanded OPCs; [9]): 89.2 % DMSO; 1 µM (% DMSO) (expanded OPCs; [10]): 94.5 % DMSO; 10 µM (% DMSO) (expanded OPCs; [11]): 87.7 % DMSO |
| Cc1noc(NS(=O)(=O)c2ccc(N)cc2)c1C [Sulfisoxazole] | -3.5 | 7.6 | 93.5 | 99.1 | 103 |  |  |  |  |  |  |
| C[C@@H]1CN(CCCn2c3ccccc3c3ccccc32)C[C@H](C)N1 [Rimcazole] |  |  | 61.7 | 33.6 | 9.5 |  |  |  |  |  | activation at 0.08 µM ([1]; Rattus norvegicus, test compound at 0.08 uM, NCC library screen, read-out: 0.08 uM (% Quet)): -5.2%; activation at 0.4 µM ([1]; Rattus norvegicus, test compound at 0.4 uM, NCC library screen, read-out: 0.4 uM (% Quet)): 23.1% |
| CC(C)OC(=O)CCC/C=C\C[C@@H]1[C@@H](CC[C@@H](O)CCc2ccccc2)[C@H](O)C[C@@H]1O [Latanoprost] |  |  |  |  |  | -37.3 | 85.2 | 91.5 | 81.4 | -143 |  |
| OCc1cccnc1 [Nicotinyl Alcohol] | -9.3 | -3.3 | 88.5 | 90.1 | 89.3 |  |  |  |  |  |  |
| [H]/N=C(/NC)NCCC[C@H](N)C(=O)O [L-NMMA] |  |  |  |  |  | 3 | 84.1 | 92.4 | 93 | 7.7 |  |
